According to the supplement of paper PMC7695840:
Values joined by “and” are separate entries in the source; they are usually repeats but may differ in a detail not shown here. Identical values can stand only once. Counter-ions that a name gives are not always drawn.

Tests used:
[1] = test system: Staphylococcus aureus MW2 delta-mecA (mecA-); test: IC50 (growth, competition assay); details: cefoxitin: subinhibitory
In short: (§1)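 Two fluorescent S. aureus MW2 strains, one carrying and one lacking the resistance gene, were pre-induced, mixed 1:1 and grown unshaken in LB in 1536-well plates for 20 h at 37 °C and 90% humidity with a subinhibitory drug dose set each day. Compounds were tested on five- or nine-point 2-fold gradients in two dye-swapped replicates. DsRed (540/590) and GFP (485/520) signals were scaled per plate between the medians of single-strain controls, and No Treatment was then set to 0.5. For each strain, IC50 was taken as the dose that halved the No Treatment signal, or else the maximal signal.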

[2] = test system: Staphylococcus aureus MW2 (mecA+); test: IC50 (growth, competition assay); details: cefoxitin: subinhibitory
In short: as §1

| Compound | IC50 ([1]; fluorescent label: DsRed) [µM] | IC50 ([1]; fluorescent label: GFP) | IC50 ([2]; fluorescent label: DsRed) [µM] | IC50 ([2]; fluorescent label: GFP) [µM] |
| --- | --- | --- | --- | --- |
| CN[C@H]1CC[C@@H](c2ccc(Cl)c(Cl)c2)c2ccccc21 [Sertraline hydrochloride] | 22.8 | 33.7 µM | 96.4 | 77.9 |
| CN(CC(=O)N(Cc1ccc(C2CCCCC2)cc1)c1ccc(C(=O)O)cc1)S(=O)(=O)c1c(F)c(F)c(F)c(F)c1F [SH-4-54] | < 9.85 | < 9.85 µM | < 9.85 | 11.5 |
| CCCCCCCCCCCCCCCC(=O)O[C@@H]1[C@@H](O)[C@@H](O)[C@@H]([C@H](NC(=O)[C@@H]2C[C@@H](CCC)CN2C)[C@H](C)Cl)O[C@@H]1SC [Clindamycin palmitate HCl] | < 9.85 | < 9.85 µM | < 9.85 | < 9.85 |
| N#CC(c1ccc(Cl)cc1)c1c(Cl)cc(-n2ncc(=O)[nH]c2=O)cc1Cl (centres undefined) [CLINACOX] | < 9.85 | < 9.85 µM | 15.2 | 23 |
| O=C(N/N=C/c1ccc([N+](=O)[O-])o1)c1ccc(O)cc1 [NIFUROXAZIDE] | 46.2 | < 9.85 µM | < 9.85 | 54.6 |
| CC[C@H]1OC(=O)C[C@@H](O)[C@H](C)[C@@H](O[C@@H]2O[C@H](C)[C@@H](O)[C@H](N(C)C)[C@H]2O)[C@@H](CCN2C[C@H](C)C[C@H](C)C2)C[C@@H](C)C(=O)/C=C/C(C)=C/[C@@H]1CO[C@@H]1O[C@H](C)[C@@H](O)[C@@H](OC)[C@H]1OC [Tilmicosin] | < 9.85 | < 9.85 µM | < 9.85 | < 9.85 |
| Cc1ccc(S(=O)(=O)C=CC#N)cc1 [BAY 11-7082 (BAY 11-7821)] | < 9.85 | < 9.85 µM | < 9.85 | 9.88 |
| Cc1ccc(S(=O)(=O)N[C@@H](Cc2ccccc2)C(=O)CCl)cc1 [N-p-Tosyl-L-phenylalanine chloromethyl ketone] | < 9.85 | < 9.85 µM | < 9.85 | < 9.85 |
| CC1(C)S[C@@H]2[C@H](NC(=O)[C@H](N)c3ccc(O)cc3)C(=O)N2[C@H]1C(=O)O [AMOXIL] | < 9.85 | < 9.85 µM | 135 | 106 |
| COc1cc(C)c(C(=O)Oc2cc(C)c(C(=O)O)c(O)c2C)c(OC)c1C [DIFFRACTAIC ACID] | 12.8 | 15.7 µM | 31 | 27.5 |
| O=C(CCCCCN1CCN(c2ccccc2-c2ccccc2)CC1)NC1CCCc2ccccc21 (centres undefined) [LP 12 hydrochloride hydrate] | < 9.85 | < 9.85 µM | 17.2 | 23.3 |
| Cc1sc2c(c1C)C(c1ccc(Cl)cc1)=N[C@@H](CC(=O)OC(C)(C)C)c1nnc(C)n1-2 [(+)-JQ1] | 47 | 35.2 µM | 96.8 | 112 |
| Cc1cc(C(C#N)c2ccc(Cl)cc2)c(Cl)cc1NC(=O)c1cc(I)cc(I)c1O (centres undefined) [FLUKIVER] | < 9.85 | < 9.85 µM | < 9.85 | < 9.85 |
| O=C1NC(=O)/C(=C/c2cccc(C(F)(F)F)c2)S1 [SMI-4a] | < 9.85 | 12.2 µM and 14.6 µM | < 9.85 | < 9.85 |
| CS(=O)(=O)c1ccc([C@@H](O)[C@@H](CF)NC(=O)C(Cl)Cl)cc1 [NUFLOR] | < 9.85 | < 9.85 µM | < 9.85 | < 9.85 |
| CN(C)C[C@H](O)Cn1c2ccc(Br)cc2c2cc(Br)ccc21 (racemic) [Wiskostatin] | < 9.85 | < 9.85 µM | 17.6 | 20.5 |
| CN(C)[C@@H]1C(O)=C(C(N)=O)C(=O)[C@@]2(O)C(O)=C3C(=O)c4c(O)cccc4[C@@](C)(O)[C@H]3[C@H](O)[C@@H]12 [TERRAMYCIN] | < 9.85 | < 9.85 µM | < 9.85 | < 9.85 |
| C[C@@H]1CN(c2c(F)c(N)c3c(=O)c(C(=O)O)cn(C4CC4)c3c2F)C[C@H](C)N1 [ZAGAM] | < 9.85 | < 9.85 µM | < 9.85 | < 9.85 |
| CC(C)c1cccc(C(C)C)c1N1C(=O)c2ccc(O)cc2C1=O [5HPP-33] | 40.7 | < 9.85 µM | 25.8 | 111 |
| CC(C)(C)c1ccc(C(=O)CCCN2CCC(OC(c3ccccc3)c3ccccc3)CC2)cc1 [Ebastine] | < 9.85 | < 9.85 µM | 16.4 | 15.3 |
| CSc1ccc2c(c1)N(CCC1CCCCN1C)c1ccccc1S2 (centres undefined) [MELLARIL] | 18.9 | 13.9 µM | 66.9 | 87.4 |
